# Conditions: for log10 biotransformation half-life (days) / log10 BCF: fish
SMILES,boiling point,melting point,other results
C=CC(F)(F)C(F)(F)C(F)(F)C(F)(F)C(F)(F)C(F)(F)C(F)(F)C(F)(F)F,150 °C,,
C=C[Si](C)(Cl)Cl,92.5 °C,,
CC(C)CN(C)C,80.5 °C,,
O=[N+]([O-])c1cc(C(F)(F)F)ccc1Cl,222 °C,-2.5 °C,
CC(=O)N1CCCCC1,226 °C,-13.4 °C,
CCNc1nc(NCC)nc(SC)n1,,,log10 Koc (L/kg): 2.3
C=C(Cl)CC,58.5 °C,,
BrCC(Br)CBr,222 °C,16.9 °C,
CCS(=O)(=O)c1ccccc1,,42 °C,
c1ccc2nn(C3CCCCC3)nc2c1,,46.5 °C,
CCCCCCOC(=O)CCCCC(=O)OCCCCCC,,,log10 vapour pressure (mmHg): -5.54
CC(CO)(CO)C(=O)O,,190 °C,
CCOC(=O)C(F)F,100 °C,,
C[C@]12CC[C@@H]3c4ccc(OC(=O)c5ccccc5)cc4CC[C@H]3[C@@H]1CC[C@@H]2O,,196 °C,
Clc1ccc(C(Cl)(Cl)Cl)cc1,245 °C,,
CSC(C)C,84.8 °C,-102 °C,log10 vapour pressure (mmHg): 1.9
CCC(=O)c1cc(C)ccc1O,,2 °C,
CCC(C)(NC(=O)c1cc(Cl)c(C)c(Cl)c1)C(=O)CCl (stereo not drawn),,,log10 biotransformation half-life (days): 0.16
Clc1ccncc1,148 °C,-43.5 °C,
CCC1OCC(COc2ccc(Oc3ccccc3)cc2)O1 (stereo not drawn),,,log10 vapour pressure (mmHg): -6.08
O=C(O)c1ccc2ccccc2c1O,,195 °C,
CC(/C=C\c1ccccc1)c1ccccc1 (stereo not drawn),311 °C,47.5 °C,
CCCOP(=S)(OCCC)SCC(=O)N1CCCCC1C (stereo not drawn),,,log10 Koc (L/kg): 3.44; log10 vapour pressure (mmHg): -6.62

SMILES,boiling point,melting point,other results
O=Cc1ccccc1F,175 °C,-44.5 °C,
CN(C)c1ccc(C(O)c2ccc(N(C)C)cc2)cc1,,101 °C,
CO[C@H]1[C@@H](O)[C@@H](C)O[C@H](O[C@H]2[C@H](Oc3cccc4c(O)c5c(=O)oc6ccc(C)c7c(=O)oc(c34)c5c67)O[C@H](C)[C@H](O)[C@@H]2O)[C@@H]1O,,185 °C,
NC1CCCCC1,134 °C,-17.7 °C,log10 Henry constant (atm·m³/mol): -5.38; log10 vapour pressure (mmHg): 1; ready biodegradability: readily biodegradable
O=C(O)c1ccccc1-c1ccc(C(F)(F)F)cc1,,170 °C,
Cc1cc(=O)nc(C(C)C)[nH]1,,173 °C,ready biodegradability: not readily biodegradable; log10 BCF: 0.26
Nc1cc2ccccc2cc1C(=O)O,,216 °C,
O=C(c1ccccc1)c1c(F)c(F)c(F)c(F)c1F,,37 °C,
CCCCCCC(C)OC(=O)COc1nc(F)c(Cl)c(N)c1Cl (stereo not drawn),,59 °C,log10 vapour pressure (mmHg): -8; log10 biotransformation half-life (days): -0.61
CCCCCCC(=O)OCCCC,226 °C,-67.5 °C,
Cc1ccc2c(c1)CCCC2,229 °C,-40 °C,
CC(F)(F)Cl,-9.7 °C,-131 °C,log10 Henry constant (atm·m³/mol): -1.23; log10 vapour pressure (mmHg): 3.41
NC(=O)c1c(Cl)cccc1Cl,,198 °C,log10 Koc (L/kg): 0.53; ready biodegradability: not readily biodegradable
Oc1ccccc1Br,194 °C,5.6 °C,ready biodegradability: not readily biodegradable; log10 BCF: 1.52; log10 biotransformation half-life (days): -0.24
C[C@H]1O[C@@H](O[C@H]2[C@@H](O)C[C@H](O[C@H]3[C@@H](O)C[C@H](O[C@H]4CC[C@@]5(C)[C@H](CC[C@@H]6[C@@H]5CC[C@]5(C)[C@@H](C7=CC(=O)OC7)CC[C@]65O)C4)O[C@@H]3C)O[C@@H]2C)C[C@H](O)[C@@H]1O,,256 °C,
O=c1[nH]sc2ccccc12,,,ready biodegradability: not readily biodegradable
c1ccc(CN2CCOCC2)cc1,260 °C,194 °C,
CCCC(C)N (stereo not drawn),92 °C,,
CCC(C#N)c1ccccc1 (stereo not drawn),241 °C,,
Cc1cc(C2(c3cc(C)c(O)c(Br)c3)OS(=O)(=O)c3ccccc32)cc(Br)c1O,,242 °C,
C=C(C)C(C)C,55.6 °C,-157 °C,log10 vapour pressure (mmHg): 2.4
CC(=O)[C@H]1CC[C@H]2[C@@H]3CCC4=CC(=O)CC[C@]4(C)[C@H]3CC[C@]12C,,121 °C,
CNC(N)=O,,103 °C,

SMILES,boiling point,melting point,other results
COC(=O)[C@H]1[C@H]2C[C@@H]3c4[nH]c5ccccc5c4CCN3C[C@H]2C[C@@H](OC(=O)c2cc(OC)c(OC)c(OC)c2)[C@@H]1OC,,230 °C,
O=Cc1ccc([N+](=O)[O-])o1,228 °C,35.5 °C,ready biodegradability: readily biodegradable
O=NN(CCCl)C(=O)NCCCl,,31 °C,
Clc1ccc(Cl)nn1,,67.5 °C,
COC(=O)C=C(C)C,136 °C,,
CC(=O)c1cc(Cl)ccc1Cl,,12 °C,
O=C(O)c1ccc(NS(=O)(=O)Cc2ccccc2)cc1,,230 °C,
C=C(C)C(=O)OCCCCCCCCCCCC,,-7 °C,
NC(=O)N(CCO)/N=C/c1ccc([N+](=O)[O-])o1,,214 °C,
OC[C@@H]1CCCCN1,,69 °C,
Cc1ccc(C)c(Cl)c1,187 °C,1.6 °C,ready biodegradability: not readily biodegradable
O=C1c2cc3ccccc3cc2-c2ccc3ccccc3c21,,214 °C,
N#Cc1cccc2ccccc12,299 °C,37.5 °C,
Cc1cc2ccccc2n1C,,56.5 °C,
COc1ccc(C)c([N+](=O)[O-])c1,266 °C,17 °C,
CC(=O)OC[C@H]([C@H](OC(C)=O)c1ccccc1)[N+](=O)[O-],,70 °C,
N#CCCN(CCC#N)c1ccc(N=Nc2c(Cl)cc([N+](=O)[O-])cc2Cl)cc1,,,ready biodegradability: not readily biodegradable
CN(c1c(Br)cc(Br)cc1Br)c1c([N+](=O)[O-])cc([N+](=O)[O-])cc1C(F)(F)F,,150 °C,log10 vapour pressure (mmHg): -7.01
Cc1cc(C)cc(OP(=O)(Oc2cc(C)cc(C)c2)Oc2cc(C)cc(C)c2)c1,,,ready biodegradability: not readily biodegradable
c1ccc2cnccc2c1,243 °C,26.5 °C,log10 vapour pressure (mmHg): -1.16
CCOC(=O)CCC(=O)OCC,218 °C,-21 °C,log10 vapour pressure (mmHg): -1.36
CSCCC=O,166 °C,,
O=C(O)CCCCCCCCCCC(=O)O,,128 °C,

SMILES,boiling point,melting point,other results
C[C@]12CCC(=O)C=C1CC[C@@H]1[C@@H]2C(=O)C[C@@]2(C)[C@H]1CC[C@]2(O)[C@H](O)CO,,208 °C,
CC1=C(C(=O)O)CCC1(C)C,256 °C,135 °C,
CCCC/C=C/CO,178 °C,,
CCOC(=O)COc1cccc2ccccc12,,56.5 °C,
CCC=CBr,99 °C,,log10 vapour pressure (mmHg): 1.89
CCC(O)C(Cl)(Cl)Cl (stereo not drawn),171 °C,,
CCCNC(=O)COC(=O)c1ccccc1,,89.5 °C,
Oc1c(Cl)cc(Cl)c(Cl)c1Cc1c(O)c(Cl)cc(Cl)c1Cl,479 °C,166 °C,ready biodegradability: not readily biodegradable; log10 BCF: 2.07
CCC(=O)NC,148 °C,-30.9 °C,log10 vapour pressure (mmHg): 0.0603
CCO[Si](CC)(OCC)OCC,158 °C,,
NCCc1c[nH]c2ccccc12,,118 °C,
C1=C\CC/C=C\CC/1,,,ready biodegradability: not readily biodegradable
C=CCCCCCCCCC,193 °C,-49.2 °C,log10 vapour pressure (mmHg): -0.307; log10 biotransformation half-life (days): 0.09
CCCCCCCOCC,166 °C,-68.3 °C,
CC1C=CC(=O)O1 (stereo not drawn),209 °C,,
CCCCCCCCCCCCCCCCC(=O)OCC,,28 °C,
CSCc1ccccc1,210 °C,-30 °C,
O=C(O)c1ccccc1F,,126 °C,
CC(=O)O[C@]1(C(C)=O)CC[C@H]2[C@@H]3C=C(Cl)C4=CC(=O)CC[C@]4(C)[C@H]3CC[C@@]21C,,213 °C,
CCCCCCC(C)O (stereo not drawn),,,log10 Henry constant (atm·m³/mol): -3.91; log10 vapour pressure (mmHg): -0.616; ready biodegradability: readily biodegradable
COc1ccc2nc(N)sc2c1,,166 °C,
O=[N+]([O-])c1ccccc1Br,258 °C,43 °C,
CCCCc1cccc2ccccc12,289 °C,-19.8 °C,

SMILES,boiling point,melting point,other results
O=C(O)[C@@H](CO)c1ccccc1,,118 °C,
O=C(O)c1cc(Cl)c(Cl)cc1Cl,,166 °C,
CN1C(=O)C(=NNC(N)=S)c2ccccc21,,245 °C,
Cc1nc2ccccc2c(=O)n1-c1ccccc1Cl,,127 °C,
Nc1cccc2ccccc12,301 °C,49.2 °C,log10 Henry constant (atm·m³/mol): -6.95; log10 Koc (L/kg): 3.51; log10 vapour pressure (mmHg): -2.38; ready biodegradability: not readily biodegradable; log10 BCF: 1.4; log10 biotransformation half-life (days): -0.24
CC1COc2ccccc2N1C(=O)C(Cl)Cl (stereo not drawn),,108 °C,log10 vapour pressure (mmHg): -5.35
C1=CCC(c2ccncc2)CC1 (stereo not drawn),226 °C,22.1 °C,
S=C=NC1CCCCC1,220 °C,,
Cc1c(Cl)c(Cl)c(C)c(Cl)c1Cl,,,log10 BCF: 3.62; log10 biotransformation half-life (days): 1.12
CC(CCO)CC(C)(C)C (stereo not drawn),194 °C,,log10 vapour pressure (mmHg): -0.523; ready biodegradability: not readily biodegradable
Cc1cc(O)c(C(C)C)cc1C1(c2cc(C(C)C)c(O)cc2C)OC(=O)c2ccccc21,,253 °C,
O=C(O)C(F)(F)C(F)(F)C(F)(F)C(F)(F)C(F)(F)C(F)F,192 °C,34 °C,
CCOc1cc(OCC)c(C(=O)CCC(=O)O)cc1OCC,,150 °C,
CC1(C)CNC(=NN=C(/C=C/c2ccc(C(F)(F)F)cc2)/C=C/c2ccc(C(F)(F)F)cc2)NC1,,188 °C,log10 Koc (L/kg): 5.86; log10 vapour pressure (mmHg): -7.69
O=C(c1ccccc1)c1ccc(-c2ccccc2)cc1,420 °C,100 °C,
CCCCC=O,103 °C,-91.5 °C,log10 Henry constant (atm·m³/mol): -3.83; log10 vapour pressure (mmHg): 1.42
COP(=S)(OC)Oc1nc(Cl)c(Cl)cc1Cl,,43 °C,log10 Koc (L/kg): 3.52; log10 vapour pressure (mmHg): -4.38
Cc1cccc(Cl)c1Cl,208 °C,6 °C,
C[Si](C)(C)OS(=O)(=O)C(F)(F)F,140 °C,,
Fc1ccccc1I,189 °C,-41.5 °C,
CCCCOC(=O)CC(O)(CC(=O)OCCCC)C(=O)OCCCC,,-20 °C,
COC(=O)c1ccccc1S(=O)(=O)NC(=O)Nc1nc(C)nc(OC)n1,,162 °C,log10 Koc (L/kg): 1.54
S=C=Nc1ccc(Cl)cc1,250 °C,46 °C,
